Laboratory results taken from patent publication US20230125667A1, “NOVEL TDZD ANALOGS AS AGENTS THAT DELAY, PREVENT, OR REVERSE AGE-ASSOCIATED DISEASES AND AS ANTI-CANCER AND ANTILEUKEMIC AGENTS” (United States Government as represented by the Department …, priority 2020, published 2023).
Read-outs that look alike come from different tables or passages of the source.

Tests used:
CCRF-CEM = test: NCI-60 growth inhibition: CCRF-CEM (Leukemia); assay type: cell-based, human
HL-60(TB) = test: NCI-60 growth inhibition: HL-60(TB) (Leukemia); assay type: cell-based, human; details: HL-60(TB) (Leukemia), read-out: GI50
K-562 = test: NCI-60 growth inhibition: K-562 (Leukemia); assay type: cell-based, human
MOLT-4 = test: NCI-60 growth inhibition: MOLT-4 (Leukemia); assay type: cell-based, human
RPMI-8226 = test: NCI-60 growth inhibition: RPMI-8226 (Leukemia); assay type: cell-based, human
SR = test: NCI-60 growth inhibition: SR (Leukemia); assay type: cell-based, human
EKVX = test: NCI-60 growth inhibition: EKVX (Non-Small-Cell Lung Cancer); assay type: cell-based, human
HOP-92 = test: NCI-60 growth inhibition: HOP-92 (Non-Small-Cell Lung Cancer); assay type: cell-based, human
NCI-H23 = test: NCI-60 growth inhibition: NCI-H23 (Non-Small-Cell Lung Cancer); assay type: cell-based, human
NCI-H460 = test: NCI-60 growth inhibition: NCI-H460 (Non-Small-Cell Lung Cancer); assay type: cell-based, human
COLO 205 = test: NCI-60 growth inhibition: COLO 205 (Colon Cancer); assay type: cell-based, human
HCT-15 = test: NCI-60 growth inhibition: HCT-15 (Colon Cancer); assay type: cell-based, human
HT29 = test: NCI-60 growth inhibition: HT29 (Colon Cancer); assay type: cell-based, human
SW-620 = test: NCI-60 growth inhibition: SW-620 (Colon Cancer); assay type: cell-based, human
SF-268 = test: NCI-60 growth inhibition: SF-268 (CNS Cancer); assay type: cell-based, human
SF-539 = test: NCI-60 growth inhibition: SF-539 (CNS Cancer); assay type: cell-based, human
SNB-19 = test: NCI-60 growth inhibition: SNB-19 (CNS Cancer); assay type: cell-based, human
SNB-75 = test: NCI-60 growth inhibition: SNB-75 (CNS Cancer); assay type: cell-based, human
U251 = test: NCI-60 growth inhibition: U251 (CNS Cancer); assay type: cell-based, human
LOX IMVI = test: NCI-60 growth inhibition: LOX IMVI (Melanoma); assay type: cell-based, human
MALME-3M = test: NCI-60 growth inhibition: MALME-3M (Melanoma); assay type: cell-based, human
M14 = test: NCI-60 growth inhibition: M14 (Melanoma); assay type: cell-based, human
MDA-MB-435 = test: NCI-60 growth inhibition: MDA-MB-435 (Melanoma); assay type: cell-based, human
SK-MEL-2 = test: NCI-60 growth inhibition: SK-MEL-2 (Melanoma); assay type: cell-based, human
SK-MEL-28 = test: NCI-60 growth inhibition: SK-MEL-28 (Melanoma); assay type: cell-based, human
SK-MEL-5 = test: NCI-60 growth inhibition: SK-MEL-5 (Melanoma); assay type: cell-based, human
UACC-257 = test: NCI-60 growth inhibition: UACC-257 (Melanoma); assay type: cell-based, human
UACC-62 = test: NCI-60 growth inhibition: UACC-62 (Melanoma); assay type: cell-based, human
IGROV1 = test: NCI-60 growth inhibition: IGROV1 (Ovarian Cancer); assay type: cell-based, human
OVCAR-3 = test: NCI-60 growth inhibition: OVCAR-3 (Ovarian Cancer); assay type: cell-based, human
OVCAR-4 = test: NCI-60 growth inhibition: OVCAR-4 (Ovarian Cancer); assay type: cell-based, human
OVCAR-5 = test: NCI-60 growth inhibition: OVCAR-5 (Ovarian Cancer); assay type: cell-based, human
OVCAR-8 = test: NCI-60 growth inhibition: OVCAR-8 (Ovarian Cancer); assay type: cell-based, human
786-0 = test: NCI-60 growth inhibition: 786-0 (Renal Cancer); assay type: cell-based, human
A498 = test: NCI-60 growth inhibition: A498 (Renal Cancer); assay type: cell-based, human
ACHN = test: NCI-60 growth inhibition: ACHN (Renal Cancer); assay type: cell-based, human
CAKI-1 = test: NCI-60 growth inhibition: CAKI-1 (Renal Cancer); assay type: cell-based, human
RXF 393 = test: NCI-60 growth inhibition: RXF 393 (Renal Cancer); assay type: cell-based, human
SN12C = test: NCI-60 growth inhibition: SN12C (Renal Cancer); assay type: cell-based, human
TK-10 = test: NCI-60 growth inhibition: TK-10 (Renal Cancer); assay type: cell-based, human
UO-31 = test: NCI-60 growth inhibition: UO-31 (Renal Cancer); assay type: cell-based, human
PC-3 = test: NCI-60 growth inhibition: PC-3 (Prostate Cancer); assay type: cell-based, human
DU-145 = test: NCI-60 growth inhibition: DU-145 (Prostate Cancer); assay type: cell-based, human
MCF7 = test: NCI-60 growth inhibition: MCF7 (Breast Cancer); assay type: cell-based, human
MDA-MB-231/ATCC = test: NCI-60 growth inhibition: MDA-MB-231/ATCC (Breast Cancer); assay type: cell-based, human
HS 578T = test: NCI-60 growth inhibition: HS 578T (Breast Cancer); assay type: cell-based, human
BT-549 = test: NCI-60 growth inhibition: BT-549 (Breast Cancer); assay type: cell-based, human
T-47D = test: NCI-60 growth inhibition: T-47D (Breast Cancer); assay type: cell-based, human
MDA-MB-468 = test: NCI-60 growth inhibition: MDA-MB-468 (Breast Cancer); assay type: cell-based, human; details: MDA-MB-468 (Breast Cancer), read-out: GI50
[1] = tested on: MV4-11 cell line (myelomonocytic leukemia); details: MV4-11 cells; for LD50, 7AAD (μM) 24 h / LD50, Alamar blue (μM) 24 h / LD50, YOPRO (μM) 24 h: MMB-TDZD analogs (Table 2)
HCT-116 = test: NCI-60 growth inhibition: HCT-116 (Colon Cancer)
NCI-H522 = test: NCI-60 growth inhibition: NCI-H522 (Non-Small-Cell Lung Cancer)

For `C=C1C(=O)O[C@H]2[C@H]1CC/C(COC(=O)NCc1ccc(Cn3c(=O)sn(CCCl)c3=O)cc1)=C\CC[C@@]1(C)O[C@@H]21` [BSK-140], the GI50 (CCRF-CEM) was 1730 nM, the GI50 (HL-60(TB)) was 1910 nM and the GI50 (K-562) was 2070 nM. It also gave a GI50 (MOLT-4) of 1850 nM, a GI50 (RPMI-8226) of 2370 nM and a GI50 (SR) of 1480 nM. The GI50 (EKVX) was 1990 nM, the GI50 (HOP-92) was 1500 nM and the GI50 (NCI-H23) was 2180 nM. It also gave a GI50 (NCI-H460) of 5100 nM, a GI50 (COLO 205) of 1840 nM and a GI50 (HCT-15) of 1850 nM. For the same compound, the GI50 (HT29) was 2160 nM, the GI50 (SW-620) was 1170 nM and the GI50 (SF-268) was 3730 nM. It also gave a GI50 (SF-539) of 1820 nM, a GI50 (SNB-19) of 11900 nM and a GI50 (SNB-75) of 7650 nM. For the same compound, the GI50 (U251) was 6790 nM, the GI50 (LOX IMVI) was 1690 nM and the GI50 (MALME-3M) was 1720 nM. The GI50 (M14) was 1820 nM, the GI50 (MDA-MB-435) was 1740 nM and the GI50 (SK-MEL-2) was 10600 nM. The GI50 (SK-MEL-28) was 1740 nM, the GI50 (SK-MEL-5) was 1700 nM and the GI50 (UACC-257) was 1850 nM. For the same compound, the GI50 (UACC-62) was 1860 nM, the GI50 (IGROV1) was 2500 nM and the GI50 (OVCAR-3) was 1530 nM. The GI50 (OVCAR-4) was 1920 nM, the GI50 (OVCAR-5) was 1970 nM and the GI50 (OVCAR-8) was 2040 nM. It also gave a GI50 (786-0) of 1790 nM, a GI50 (A498) of 11500 nM and a GI50 (ACHN) of 1540 nM. It also gave a GI50 (CAKI-1) of 1760 nM, a GI50 (RXF 393) of 1180 nM and a GI50 (SN12C) of 2010 nM. For the same compound, the GI50 (TK-10) was 1770 nM, the GI50 (UO-31) was 1650 nM and the GI50 (PC-3) was 8090 nM. The GI50 (DU-145) was 1720 nM, the GI50 (MCF7) was 1910 nM and the GI50 (MDA-MB-231/ATCC) was 1890 nM. For the same compound, the GI50 (HS 578T) was 12100 nM, the GI50 (BT-549) was 1450 nM and the GI50 (T-47D) was 1970 nM. For the same compound, the GI50 (MDA-MB-468) was 1780 nM, the “LD50, 7AAD (μM) 24 h” value [1] was 4.42 µM and the “LD50, Alamar blue (μM) 24 h” value [1] was 1.50 µM. The “LD50, YOPRO (μM) 24 h” value [1] was 2.88 µM, the GI50 (HCT-116; HCT-116 (Colon Cancer)) was 1620 nM and the GI50 (NCI-H522; NCI-H522 (Non-Small-Cell Lung Cancer)) was 1380 nM.

Work on `C=C1C(=O)O[C@H]2[C@H]1CC/C(COC(=O)NCc1ccc(Cn3c(=O)sn(-c4ccc(OC)cc4)c3=O)cc1)=C\CC[C@@]1(C)O[C@@H]21` [BSK-271] yielded a GI50 (CCRF-CEM; Homo sapiens) of 560 nM, a GI50 (HL-60(TB); Homo sapiens) of 2120 nM and a GI50 (MOLT-4; Homo sapiens) of 1930 nM. For the same compound, the GI50 (RPMI-8226; Homo sapiens) was 2010 nM, the GI50 (SR; Homo sapiens) was 530 nM and the GI50 (EKVX; Homo sapiens) was 3500 nM. The GI50 (HOP-92; Homo sapiens) was 1610 nM, the GI50 (NCI-H23; Homo sapiens) was 2970 nM and the GI50 (NCI-H460; Homo sapiens) was 3700 nM. It also gave a GI50 (COLO 205; Homo sapiens) of 1850 nM, a GI50 (HCT-15; Homo sapiens) of 1680 nM and a GI50 (HT29; Homo sapiens, HT-29) of 1960 nM. It also gave a GI50 (SW-620; Homo sapiens) of 1770 nM, a GI50 (SF-268; Homo sapiens) of 3140 nM and a GI50 (SF-539; Homo sapiens) of 1960 nM. For the same compound, the GI50 (SNB-19; Homo sapiens) was 11700 nM, the GI50 (SNB-75; Homo sapiens) was 3440 nM and the GI50 (U251; Homo sapiens, U-251) was 4110 nM. The GI50 (LOX IMVI; Homo sapiens) was 1730 nM, the GI50 (MALME-3M; Homo sapiens) was 1810 nM and the GI50 (M14; Homo sapiens) was 2190 nM. It also gave a GI50 (MDA-MB-435; Homo sapiens) of 1830 nM, a GI50 (SK-MEL-2; Homo sapiens) of 3190 nM and a GI50 (SK-MEL-28; Homo sapiens) of 1970 nM. The GI50 (SK-MEL-5; Homo sapiens) was 12000 nM, the GI50 (UACC-257; Homo sapiens) was 2030 nM and the GI50 (UACC-62; Homo sapiens) was 1860 nM. For the same compound, the GI50 (IGROV1; Homo sapiens, IGROV-1) was 2850 nM, the GI50 (OVCAR-3; Homo sapiens) was 1610 nM and the GI50 (OVCAR-4; Homo sapiens) was 1640 nM. It also gave a GI50 (OVCAR-5; Homo sapiens) of 2060 nM, a GI50 (OVCAR-8; Homo sapiens) of 2370 nM and a GI50 (786-0; Homo sapiens) of 2050 nM. The GI50 (A498; Homo sapiens) was 5650 nM, the GI50 (ACHN; Homo sapiens) was 1730 nM and the GI50 (CAKI-1; Homo sapiens) was 2340 nM. The GI50 (SN12C; Homo sapiens) was 2140 nM, the GI50 (TK-10; Homo sapiens) was 1910 nM and the GI50 (UO-31; Homo sapiens) was 1560 nM. It also gave a GI50 (PC-3; Homo sapiens) of 2190 nM, a GI50 (DU-145; Homo sapiens) of 1810 nM and a GI50 (MCF7; Homo sapiens) of 1770 nM. For the same compound, the GI50 (MDA-MB-231/ATCC; Homo sapiens) was 1970 nM, the GI50 (HS 578T; Homo sapiens) was 2920 nM and the GI50 (BT-549; Homo sapiens) was 4370 nM. The GI50 (T-47D; Homo sapiens, T47D) was 1860 nM, the GI50 (MDA-MB-468; Homo sapiens) was 1530 nM and the “LD50, 7AAD (μM) 24 h” value [1] was 1.74 µM. The “LD50, Alamar blue (μM) 24 h” value [1] was 1.20 µM, the “LD50, YOPRO (μM) 24 h” value [1] was 2.07 µM and the LD50 ([1]; values in text) was 680 nM. For the same compound, the GI50 (HCT-116; Homo sapiens, HCT-116) was 1930 nM and the GI50 (NCI-H522; Homo sapiens, NCI-H522) was 1670 nM.
